Reference: PubChem BioAssay (NCI)
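All cell lines were grown in 96-well plates and treated with compound for 48 hours. At the TGI there is no net growth.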

Experiments:
Experiment in all cases: DTP human tumour cell line panel, 48 h
786-0 renal = test system: 786-0 renal
A498 renal = test system: A498 renal
A549 NSCLC = test system: A549 NSCLC
ACHN renal = test system: ACHN renal
CCRF-CEM leukemia = test system: CCRF-CEM leukemia
COLO 205 colon = test system: COLO 205 colon
DU-145 prostate = test system: DU-145 prostate
EKVX NSCLC = test system: EKVX NSCLC
HCC-2998 colon = test system: HCC-2998 colon
HCT-116 colon = test system: HCT-116 colon
HCT-15 colon = test system: HCT-15 colon
HL-60(TB) leukemia = test system: HL-60(TB) leukemia
HOP-62 NSCLC = test system: HOP-62 NSCLC
HOP-92 NSCLC = test system: HOP-92 NSCLC
HT29 colon = test system: HT29 colon
IGROV1 ovarian = test system: IGROV1 ovarian
K-562 leukemia = test system: K-562 leukemia
KM12 colon = test system: KM12 colon
LOX IMVI melanoma = test system: LOX IMVI melanoma
M14 melanoma = test system: M14 melanoma
MALME-3M melanoma = test system: MALME-3M melanoma
MCF7 breast = test system: MCF7 breast
MDA-MB-231 breast = test system: MDA-MB-231 breast
MDA-MB-435 = test system: MDA-MB-435
MDA-N = test system: MDA-N
MOLT-4 leukemia = test system: MOLT-4 leukemia
NCI-H226 lung = test system: NCI-H226 lung
NCI-H23 lung = test system: NCI-H23 lung
NCI-H460 lung = test system: NCI-H460 lung
NCI-H522 lung = test system: NCI-H522 lung
NCI/ADR-RES ovarian = test system: NCI/ADR-RES ovarian
OVCAR-3 ovarian = test system: OVCAR-3 ovarian
OVCAR-4 ovarian = test system: OVCAR-4 ovarian
OVCAR-5 ovarian = test system: OVCAR-5 ovarian
OVCAR-8 ovarian = test system: OVCAR-8 ovarian
PC-3 prostate = test system: PC-3 prostate
RXF 393 renal = test system: RXF 393 renal
SF-268 CNS = test system: SF-268 CNS
SF-295 CNS = test system: SF-295 CNS
SF-539 CNS = test system: SF-539 CNS
SK-MEL-2 melanoma = test system: SK-MEL-2 melanoma
SK-MEL-28 melanoma = test system: SK-MEL-28 melanoma
SK-MEL-5 melanoma = test system: SK-MEL-5 melanoma
SK-OV-3 ovarian = test system: SK-OV-3 ovarian
SN12C renal = test system: SN12C renal
SNB-19 CNS = test system: SNB-19 CNS
SNB-75 CNS = test system: SNB-75 CNS
SR leukemia = test system: SR leukemia
SW-620 colon = test system: SW-620 colon
T-47D breast = test system: T-47D breast
TK-10 renal = test system: TK-10 renal
U251 CNS = test system: U251 CNS
UACC-257 melanoma = test system: UACC-257 melanoma
UACC-62 melanoma = test system: UACC-62 melanoma
UO-31 renal = test system: UO-31 renal
HS 578T breast = test system: HS 578T breast
RPMI-8226 leukemia = test system: RPMI-8226 leukemia
CAKI-1 renal = test system: CAKI-1 renal

With `COC(=O)[C@@H](NC1(c2ccccc2)c2ccccc2-c2ccccc21)[C@H](OC(=O)[C@H]1CCCN1S(=O)(=O)c1ccccc1)C(=O)OC` the TGI (786-0 renal) was greater than 100 µM, the TGI (A498 renal) was greater than 100 µM and the TGI (A549 NSCLC) was greater than 100 µM. For the same compound, the TGI (ACHN renal) was greater than 100 µM, the TGI (CCRF-CEM leukemia) was greater than 100 µM and the TGI (COLO 205 colon) was greater than 100 µM. The TGI (DU-145 prostate) was greater than 100 µM, the TGI (EKVX NSCLC) was greater than 100 µM and the TGI (HCC-2998 colon) was greater than 100 µM. For the same compound, the TGI (HCT-116 colon) was greater than 100 µM, the TGI (HCT-15 colon) was greater than 100 µM and the TGI (HL-60(TB) leukemia) was greater than 100 µM. It also gave a TGI (HOP-62 NSCLC) greater than 100 µM, a TGI (HOP-92 NSCLC) of 84.1 µM and a TGI (HT29 colon) greater than 100 µM. It also gave a TGI (IGROV1 ovarian) greater than 100 µM, a TGI (K-562 leukemia) greater than 100 µM and a TGI (KM12 colon) greater than 100 µM. The TGI (LOX IMVI melanoma) was greater than 100 µM, the TGI (M14 melanoma) was greater than 100 µM and the TGI (MALME-3M melanoma) was greater than 100 µM. It also gave a TGI (MCF7 breast) greater than 100 µM, a TGI (MDA-MB-231 breast) greater than 100 µM and a TGI (MDA-MB-435) greater than 100 µM. It also gave a TGI (MDA-N) greater than 100 µM, a TGI (MOLT-4 leukemia) greater than 100 µM and a TGI (NCI-H226 lung) greater than 100 µM. It also gave a TGI (NCI-H23 lung) greater than 100 µM, a TGI (NCI-H460 lung) greater than 100 µM and a TGI (NCI-H522 lung) greater than 100 µM. The TGI (NCI/ADR-RES ovarian) was greater than 100 µM, the TGI (OVCAR-3 ovarian) was greater than 100 µM and the TGI (OVCAR-4 ovarian) was greater than 100 µM. The TGI (OVCAR-5 ovarian) was greater than 100 µM, the TGI (OVCAR-8 ovarian) was greater than 100 µM and the TGI (PC-3 prostate) was greater than 100 µM. It also gave a TGI (RXF 393 renal) greater than 100 µM, a TGI (SF-268 CNS) greater than 100 µM and a TGI (SF-295 CNS) greater than 100 µM. The TGI (SF-539 CNS) was greater than 100 µM, the TGI (SK-MEL-2 melanoma) was greater than 100 µM and the TGI (SK-MEL-28 melanoma) was greater than 100 µM. It also gave a TGI (SK-MEL-5 melanoma) greater than 100 µM, a TGI (SK-OV-3 ovarian) greater than 100 µM and a TGI (SN12C renal) greater than 100 µM. It also gave a TGI (SNB-19 CNS) greater than 100 µM, a TGI (SNB-75 CNS) greater than 100 µM and a TGI (SR leukemia) greater than 100 µM. It also gave a TGI (SW-620 colon) greater than 100 µM, a TGI (T-47D breast) greater than 100 µM and a TGI (TK-10 renal) greater than 100 µM. The TGI (U251 CNS) was greater than 100 µM, the TGI (UACC-257 melanoma) was greater than 100 µM and the TGI (UACC-62 melanoma) was greater than 100 µM. It also gave a TGI (UO-31 renal) greater than 100 µM.
With `COC(=O)CCCc1ccc2c(c1)CC1(Cc3ccccc3C1)C2` the TGI (786-0 renal) was greater than 100 µM, the TGI (A498 renal) was greater than 100 µM and the TGI (A549 NSCLC) was greater than 100 µM. For the same compound, the TGI (ACHN renal) was greater than 100 µM, the TGI (CCRF-CEM leukemia) was 71.6 µM and the TGI (COLO 205 colon) was 62.5 µM. For the same compound, the TGI (EKVX NSCLC) was greater than 100 µM, the TGI (HCC-2998 colon) was greater than 100 µM and the TGI (HCT-116 colon) was 78.6 µM. It also gave a TGI (HCT-15 colon) of 97.3 µM, a TGI (HOP-62 NSCLC) greater than 100 µM and a TGI (HOP-92 NSCLC) greater than 100 µM. For the same compound, the TGI (HS 578T breast) was greater than 100 µM, the TGI (HT29 colon) was greater than 100 µM and the TGI (IGROV1 ovarian) was greater than 100 µM. For the same compound, the TGI (KM12 colon) was greater than 100 µM, the TGI (LOX IMVI melanoma) was greater than 100 µM and the TGI (M14 melanoma) was greater than 100 µM. For the same compound, the TGI (MALME-3M melanoma) was greater than 100 µM, the TGI (MCF7 breast) was greater than 100 µM and the TGI (MDA-MB-231 breast) was greater than 100 µM. The TGI (MDA-MB-435) was 61.1 µM, the TGI (MDA-N) was 53.6 µM and the TGI (MOLT-4 leukemia) was 15.5 µM. It also gave a TGI (NCI-H226 lung) greater than 100 µM, a TGI (NCI-H23 lung) greater than 100 µM and a TGI (NCI-H522 lung) greater than 100 µM. For the same compound, the TGI (NCI/ADR-RES ovarian) was greater than 100 µM, the TGI (OVCAR-3 ovarian) was greater than 100 µM and the TGI (OVCAR-4 ovarian) was greater than 100 µM. It also gave a TGI (OVCAR-5 ovarian) greater than 100 µM, a TGI (OVCAR-8 ovarian) greater than 100 µM and a TGI (PC-3 prostate) greater than 100 µM. The TGI (RPMI-8226 leukemia) was 85.5 µM, the TGI (RXF 393 renal) was greater than 100 µM and the TGI (SF-295 CNS) was greater than 100 µM. It also gave a TGI (SF-539 CNS) greater than 100 µM, a TGI (SK-MEL-2 melanoma) of 56.1 µM and a TGI (SK-MEL-5 melanoma) of 59.7 µM. The TGI (SK-OV-3 ovarian) was greater than 100 µM, the TGI (SN12C renal) was greater than 100 µM and the TGI (T-47D breast) was greater than 100 µM. It also gave a TGI (TK-10 renal) greater than 100 µM, a TGI (U251 CNS) greater than 100 µM and a TGI (UACC-257 melanoma) greater than 100 µM. It also gave a TGI (UACC-62 melanoma) greater than 100 µM and a TGI (UO-31 renal) greater than 100 µM.
With `CC(=O)Oc1cc2c[n+](C)c3c4cc(OC(C)=O)c(OC(C)=O)cc4ccc3c2cc1OC(C)=O` the TGI (786-0 renal) was greater than 100 µM, the TGI (A498 renal) was greater than 65.3 µM and the TGI (A549 NSCLC) was greater than 100 µM. The TGI (ACHN renal) was greater than 100 µM, the TGI (CAKI-1 renal) was greater than 100 µM and the TGI (COLO 205 colon) was greater than 100 µM. For the same compound, the TGI (DU-145 prostate) was greater than 100 µM, the TGI (EKVX NSCLC) was 73.4 µM and the TGI (HCC-2998 colon) was greater than 100 µM. The TGI (HCT-116 colon) was greater than 32.5 µM, the TGI (HCT-15 colon) was greater than 100 µM and the TGI (HOP-62 NSCLC) was greater than 100 µM. For the same compound, the TGI (HOP-92 NSCLC) was greater than 100 µM, the TGI (HS 578T breast) was greater than 100 µM and the TGI (HT29 colon) was 26.2 µM. For the same compound, the TGI (IGROV1 ovarian) was greater than 100 µM, the TGI (K-562 leukemia) was greater than 100 µM and the TGI (KM12 colon) was greater than 100 µM. It also gave a TGI (LOX IMVI melanoma) greater than 100 µM, a TGI (M14 melanoma) greater than 48.4 µM and a TGI (MALME-3M melanoma) greater than 100 µM. It also gave a TGI (MCF7 breast) greater than 100 µM, a TGI (MDA-N) greater than 100 µM and a TGI (MOLT-4 leukemia) greater than 100 µM. It also gave a TGI (NCI-H226 lung) greater than 100 µM, a TGI (NCI-H23 lung) greater than 100 µM and a TGI (NCI-H460 lung) greater than 100 µM. The TGI (NCI-H522 lung) was greater than 100 µM, the TGI (NCI/ADR-RES ovarian) was greater than 100 µM and the TGI (OVCAR-5 ovarian) was greater than 50.1 µM. For the same compound, the TGI (OVCAR-8 ovarian) was greater than 100 µM, the TGI (PC-3 prostate) was greater than 100 µM and the TGI (RPMI-8226 leukemia) was greater than 100 µM. It also gave a TGI (RXF 393 renal) of 11 µM, a TGI (SF-268 CNS) greater than 100 µM and a TGI (SF-295 CNS) greater than 57.8 µM. The TGI (SK-MEL-28 melanoma) was greater than 100 µM, the TGI (SK-MEL-5 melanoma) was greater than 61.4 µM and the TGI (SK-OV-3 ovarian) was greater than 100 µM. It also gave a TGI (SN12C renal) greater than 100 µM, a TGI (SNB-19 CNS) greater than 100 µM and a TGI (SR leukemia) greater than 100 µM. It also gave a TGI (SW-620 colon) greater than 100 µM, a TGI (T-47D breast) greater than 100 µM and a TGI (TK-10 renal) greater than 100 µM. It also gave a TGI (U251 CNS) greater than 100 µM, a TGI (UACC-257 melanoma) greater than 100 µM and a TGI (UACC-62 melanoma) greater than 100 µM. It also gave a TGI (UO-31 renal) of 9.46 µM.
